Converted amounts (≈) assume the structure as drawn.
Assays:
[1] = tested on: Radical scavenging activity; assay: Antioxidant activity assessed as inhibition of DPPH radical production after 30 min by spectrophotometric analysis; assay type: functional
[2] = Antioxidant activity assessed as inhibition of ABTS radical production after 10 min by spectrophotometric analysis; assay type: functional

| SMILES | IC50 [1] | IC50 [2] |
| --- | --- | --- |
| COc1c(O)cc([C@H]2Oc3cc(O)cc(O)c3C[C@@H]2O)cc1O [4'-O-METHYL-GALLOCATECHIN] | 2.57 µg/mL (≈ 8.02 µM) | 0.78 µg/mL (≈ 2.44 µM) |
| Oc1cc(O)c2c(c1)O[C@H](c1ccc(O)c(O)c1)[C@H](O)C2 [(-)-EPICATECHIN] | 1.61 µg/mL (≈ 5.55 µM) | 1.83 µg/mL (≈ 6.3 µM) |
| Cc1cc(C(C)(C)C)c(O)c(C(C)(C)C)c1 [BUTYLATED HYDROXYTOLUENE] | 18.79 µg/mL (≈ 85.3 µM) | 4.555 µg/mL (≈ 20.7 µM) |
| O=C(O)/C=C/c1ccc(O)c(O)c1 [CAFFEIC ACID] | 1.8 µg/mL (≈ 9.99 µM) | 1.54 µg/mL (≈ 8.55 µM) |
| Oc1cc(O)c2c(c1)O[C@H](c1ccc(O)c(O)c1)[C@@H](O)C2 [CIANIDANOL] | 1.4 µg/mL (≈ 4.82 µM) | 0.56 µg/mL (≈ 1.93 µM) |
| O=c1c(O)c(-c2ccc(O)cc2)oc2cc(O)cc(O)c12 [KAEMPFEROL] | 2.51 µg/mL (≈ 8.77 µM) | 1.03 µg/mL (≈ 3.6 µM) |
| CCCOC(=O)c1cc(O)c(O)c(O)c1 [PROPYL GALLATE] | 0.94 µg/mL (≈ 4.43 µM) | 0.885 µg/mL (≈ 4.17 µM) |
| O=C(O)c1ccc(O)c(O)c1 [PROTOCATECHUIC ACID] | ND(Insoluble) | 2.47 µg/mL (≈ 16 µM) |

Source: ChEMBL document CHEMBL3045898, “Antioxidant phenolic compounds and flavonoids of Mitragyna rotundifolia (Roxb.) Kuntze in vitro” (Med Chem Res, 2010)
